Results: ChEMBL document CHEMBL1201862, “PubChem BioAssay data set” (2004)
Calls of active or inactive are those of the source.

Legend:
[1] = NIH-3T3 fibroblast cytotoxicity, dose response, cytotoxicity control, cell-based, fluorescence, Alamar Blue, secondary assay (AID 2327); format: functional;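 further: NIH-3T3 mouse fibroblasts cultured with fluconazole at 8 µg/mL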
[2] = test system: Streptococcus sp. 'group A'; assay: growth inhibition of control SK(-) GAS strain, dose response, counter-screen for streptokinase expression inhibitor project, luminescence, kanamycin, BacTiterGlo, confirmation (AID 1900); format: functional, organism-based
Streptokinase A = biological target: T1, Streptokinase A (Streptococcus pyogenes serotype M1, UniProt P10520); assay: S. pyogenes streptokinase expression inhibitors, potency, dose response, plasminogen activation absorbance, OD405 (AID 1914); format: functional, Streptococcus pyogenes M1 GAS;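 further: secreted streptokinase activity via plasminogen activation per viability signal from cell pellet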
T1 sequence (P10520 whole entry): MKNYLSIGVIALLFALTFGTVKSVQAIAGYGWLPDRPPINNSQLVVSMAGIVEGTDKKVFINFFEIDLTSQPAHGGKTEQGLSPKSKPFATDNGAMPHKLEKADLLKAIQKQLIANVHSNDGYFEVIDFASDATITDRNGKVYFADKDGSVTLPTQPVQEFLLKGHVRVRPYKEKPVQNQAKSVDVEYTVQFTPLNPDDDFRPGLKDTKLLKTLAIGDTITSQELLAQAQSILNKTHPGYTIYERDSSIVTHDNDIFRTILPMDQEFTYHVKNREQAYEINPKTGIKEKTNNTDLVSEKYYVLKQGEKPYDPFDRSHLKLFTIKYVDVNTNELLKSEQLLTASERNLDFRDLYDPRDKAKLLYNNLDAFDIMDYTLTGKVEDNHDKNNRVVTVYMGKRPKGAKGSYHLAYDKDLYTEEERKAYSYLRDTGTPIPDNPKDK

[3] = C. albicans growth with fluconazole, confirmation, fluorescence, retest (AID 2467); format: functional, cell-based
Streptococcus = assay: Group A Streptococcus viability loss, dose response, counter-screen for streptokinase expression inhibitor project, luminescence, BacTiterGlo (AID 1915); format: functional, organism-based;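 further: potency for reduction of bacterial viability or growth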
[4] = THP-1 cell cytotoxicity, dose response, cytotoxicity control for non-replicating M. tuberculosis project (AID 489025); format: functional
[5] = HepG2 cell cytotoxicity, dose response, cytotoxicity control for non-replicating M. tuberculosis project (AID 489018); format: functional; conditions: Mycobacterium tuberculosis
[6] = biological target: T2, Ubiquitin-conjugating enzyme E2 N (Homo sapiens, UniProt P61088); format: functional;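 further: Dose-response confirmation in a TR-FRET assay detecting UBC13-driven polyubiquitin chain formation, inhibition measured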
T2 sequence (P61088 whole entry): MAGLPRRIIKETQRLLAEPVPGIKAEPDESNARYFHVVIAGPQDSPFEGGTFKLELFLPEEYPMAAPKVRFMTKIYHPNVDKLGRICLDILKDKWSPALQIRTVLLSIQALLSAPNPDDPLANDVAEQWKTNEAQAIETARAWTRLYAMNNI

Beta-galactosidase = Beta-galactosidase (Escherichia coli, UniProt Q8VNN2); assay: beta-galactosidase enzyme inhibitors and activators, dose response, artefact control for CCR6 antagonist project, biochemical, E. coli enzyme, set 3 (AID 504712); format: functional
Sequence of Beta-galactosidase (Q8VNN2 whole entry): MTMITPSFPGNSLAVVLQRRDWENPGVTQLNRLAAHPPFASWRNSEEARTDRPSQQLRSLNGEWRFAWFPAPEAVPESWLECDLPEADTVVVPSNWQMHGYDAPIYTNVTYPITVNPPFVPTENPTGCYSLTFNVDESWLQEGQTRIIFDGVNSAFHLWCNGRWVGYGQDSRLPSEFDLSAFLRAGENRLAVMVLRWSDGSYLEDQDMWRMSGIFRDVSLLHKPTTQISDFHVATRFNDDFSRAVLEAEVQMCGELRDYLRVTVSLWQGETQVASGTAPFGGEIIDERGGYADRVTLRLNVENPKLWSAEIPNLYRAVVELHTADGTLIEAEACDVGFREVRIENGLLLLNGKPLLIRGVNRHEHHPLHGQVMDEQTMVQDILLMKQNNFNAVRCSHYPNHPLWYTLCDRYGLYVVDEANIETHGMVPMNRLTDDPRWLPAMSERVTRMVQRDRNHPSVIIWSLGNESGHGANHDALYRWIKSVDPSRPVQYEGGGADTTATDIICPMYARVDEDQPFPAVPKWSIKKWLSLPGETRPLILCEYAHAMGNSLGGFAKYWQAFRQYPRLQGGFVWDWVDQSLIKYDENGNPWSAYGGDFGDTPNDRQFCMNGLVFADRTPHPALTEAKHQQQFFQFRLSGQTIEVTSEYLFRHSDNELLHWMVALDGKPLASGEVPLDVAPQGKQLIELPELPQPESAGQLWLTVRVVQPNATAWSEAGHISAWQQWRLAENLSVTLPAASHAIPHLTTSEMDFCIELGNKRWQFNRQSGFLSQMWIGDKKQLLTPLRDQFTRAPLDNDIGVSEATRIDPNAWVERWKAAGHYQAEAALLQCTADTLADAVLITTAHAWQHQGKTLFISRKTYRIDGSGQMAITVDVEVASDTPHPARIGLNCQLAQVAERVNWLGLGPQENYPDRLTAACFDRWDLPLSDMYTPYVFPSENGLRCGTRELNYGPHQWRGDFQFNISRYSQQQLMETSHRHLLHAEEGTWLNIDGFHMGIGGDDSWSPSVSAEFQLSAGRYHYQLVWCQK

[7] = Vero E6 cell cytotoxicity, dose response, cytotoxicity control for non-replicating M. tuberculosis project, secondary assay (AID 492998); format: functional, VeroE6; conditions: Vero C1008
cells = format: functional
Protein skinhead-1 = biological target: T3, Protein skinhead-1 (Caenorhabditis elegans, UniProt P34707); format: functional
T3 sequence (P34707 whole entry): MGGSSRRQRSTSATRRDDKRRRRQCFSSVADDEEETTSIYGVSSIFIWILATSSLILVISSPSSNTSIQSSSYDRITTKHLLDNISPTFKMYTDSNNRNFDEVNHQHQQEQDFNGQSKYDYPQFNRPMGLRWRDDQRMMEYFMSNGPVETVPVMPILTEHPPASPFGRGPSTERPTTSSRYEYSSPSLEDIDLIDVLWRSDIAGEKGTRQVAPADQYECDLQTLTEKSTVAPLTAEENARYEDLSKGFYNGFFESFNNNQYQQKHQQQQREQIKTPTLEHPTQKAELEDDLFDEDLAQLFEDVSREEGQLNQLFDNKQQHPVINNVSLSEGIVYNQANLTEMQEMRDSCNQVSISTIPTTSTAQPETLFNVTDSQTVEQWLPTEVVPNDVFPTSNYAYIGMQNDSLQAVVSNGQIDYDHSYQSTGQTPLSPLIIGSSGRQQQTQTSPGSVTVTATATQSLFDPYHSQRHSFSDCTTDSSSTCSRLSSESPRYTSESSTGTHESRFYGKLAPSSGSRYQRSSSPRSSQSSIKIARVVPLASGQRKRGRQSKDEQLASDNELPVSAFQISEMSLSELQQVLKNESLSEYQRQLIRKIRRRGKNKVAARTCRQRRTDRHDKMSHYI

Vero [8] = assay: cytotoxicity of synthesized analogs in Vero 76, SAR follow-up, cytotoxicity control for West Nile virus antiviral project, Vero 76 cells (AID 2414); format: functional; conditions: Chlorocebus sabaeus
[9] = HEp-2 cell cytotoxicity, dose response, cytotoxicity control for RSV inhibitor project, HTS (AID 2410); format: functional; conditions: human respiratory syncytial virus
Vero [10] = assay: cytotoxicity of synthesized analogs in Vero cells, SAR follow-up, cytotoxicity control for West Nile virus antiviral project, cell-based, set II (AID 2402); format: functional; conditions: Chlorocebus sabaeus
Vero [11] = assay: Vero E6 cell cytotoxicity, SAR follow-up, cytotoxicity control for West Nile virus antiviral project, synthesized analogs (AID 2244); format: functional; conditions: Chlorocebus sabaeus
[12] = A Cell Based Assay for the Identification of Probe candidate Compounds with Anti- Venezuelan Equine Encephalitis virus. [Related pubchem assays: 2409, 2419, 1621, 2238, 2405, 2024, 2065, 2402, 2414, 1635, 1650, 2244 ]; format: functional
Vero [13] = assay: West Nile virus CPE inhibition, SAR follow-up, cell-based, synthesized analogs (AID 2238); format: functional; conditions: Chlorocebus sabaeus
Vero [14] = assay: West Nile virus antiviral activity, cell-based, CPE readout (AID 1621); format: functional; conditions: Chlorocebus sabaeus
Vero [15] = assay: cells; format: functional, cell-based; conditions: Chlorocebus sabaeus
Vero [16] = assay: cells; format: functional; conditions: Chlorocebus sabaeus
[17] = biological target: Endoplasmic reticulum aminopeptidase 1 (Homo sapiens, UniProt Q9NZ08); assay: ERAP1 aminopeptidase inhibitors, dose response, biochemical, cherry-pick, set 2, plate reader (AID 743314)
Sequence of Endoplasmic reticulum aminopeptidase 1 (Q9NZ08 whole entry): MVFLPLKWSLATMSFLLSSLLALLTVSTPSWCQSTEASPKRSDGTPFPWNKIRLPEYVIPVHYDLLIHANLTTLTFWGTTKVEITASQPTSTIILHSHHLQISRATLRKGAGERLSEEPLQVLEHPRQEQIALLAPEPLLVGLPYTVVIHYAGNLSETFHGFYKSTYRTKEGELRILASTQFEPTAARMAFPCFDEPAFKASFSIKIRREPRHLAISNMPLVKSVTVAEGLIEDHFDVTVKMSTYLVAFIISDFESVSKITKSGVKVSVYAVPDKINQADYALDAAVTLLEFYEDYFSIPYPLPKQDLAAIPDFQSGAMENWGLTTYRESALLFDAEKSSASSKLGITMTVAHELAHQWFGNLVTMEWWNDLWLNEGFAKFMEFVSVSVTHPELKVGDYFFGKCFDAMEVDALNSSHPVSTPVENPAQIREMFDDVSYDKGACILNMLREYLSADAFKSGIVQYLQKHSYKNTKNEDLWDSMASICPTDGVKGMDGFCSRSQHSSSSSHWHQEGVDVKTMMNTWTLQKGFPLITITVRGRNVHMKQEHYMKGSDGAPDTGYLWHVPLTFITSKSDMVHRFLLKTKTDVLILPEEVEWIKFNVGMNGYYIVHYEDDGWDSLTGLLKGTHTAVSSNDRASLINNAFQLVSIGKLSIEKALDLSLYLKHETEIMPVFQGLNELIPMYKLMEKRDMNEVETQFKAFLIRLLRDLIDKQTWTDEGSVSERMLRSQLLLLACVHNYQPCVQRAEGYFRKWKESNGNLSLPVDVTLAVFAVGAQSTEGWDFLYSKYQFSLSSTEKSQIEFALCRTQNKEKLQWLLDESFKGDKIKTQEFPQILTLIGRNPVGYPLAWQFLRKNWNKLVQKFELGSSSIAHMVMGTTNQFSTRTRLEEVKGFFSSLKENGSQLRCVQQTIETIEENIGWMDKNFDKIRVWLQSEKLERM

[18] = biological target: Intestinal-type alkaline phosphatase (Homo sapiens, UniProt P09923); assay: Dose Response confirmation of uHTS hits from a small molecule inhibitors of human intestinal alkaline phosphatase via a luminescent assay. [Related pubchem assays (depositor defined):AID2544, AID2574]; format: functional
Sequence of Intestinal-type alkaline phosphatase (P09923 whole entry): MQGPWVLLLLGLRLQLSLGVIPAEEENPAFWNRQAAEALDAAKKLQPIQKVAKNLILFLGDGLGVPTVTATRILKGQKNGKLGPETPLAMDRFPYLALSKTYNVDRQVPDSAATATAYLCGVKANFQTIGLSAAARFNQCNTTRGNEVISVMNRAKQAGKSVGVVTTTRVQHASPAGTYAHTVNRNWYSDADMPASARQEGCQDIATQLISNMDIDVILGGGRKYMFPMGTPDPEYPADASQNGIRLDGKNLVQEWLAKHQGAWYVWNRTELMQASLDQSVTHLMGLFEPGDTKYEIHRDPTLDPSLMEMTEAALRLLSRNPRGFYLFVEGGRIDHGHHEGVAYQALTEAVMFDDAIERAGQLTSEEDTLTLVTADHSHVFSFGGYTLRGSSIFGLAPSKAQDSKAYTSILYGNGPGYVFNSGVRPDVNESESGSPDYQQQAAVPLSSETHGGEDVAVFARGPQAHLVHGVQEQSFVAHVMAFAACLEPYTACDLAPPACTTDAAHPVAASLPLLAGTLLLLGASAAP

[19] = biological target: Voltage-dependent T-type calcium channel subunit alpha-1H (Homo sapiens, UniProt O95180); assay: Cav3.2 T-type channel inhibitors, cell-based, synthetic library set 1, calcium flux (AID 493022); format: functional
[20] = biological target: NACHT, LRR and PYD domains-containing protein 3 (Homo sapiens, UniProt Q96P20); assay: NALP3 inhibitors in yeast, dose response, luminescent (AID 488799); format: functional
Sequence of NACHT, LRR and PYD domains-containing protein 3 (Q96P20 whole entry, the tested form may be a part): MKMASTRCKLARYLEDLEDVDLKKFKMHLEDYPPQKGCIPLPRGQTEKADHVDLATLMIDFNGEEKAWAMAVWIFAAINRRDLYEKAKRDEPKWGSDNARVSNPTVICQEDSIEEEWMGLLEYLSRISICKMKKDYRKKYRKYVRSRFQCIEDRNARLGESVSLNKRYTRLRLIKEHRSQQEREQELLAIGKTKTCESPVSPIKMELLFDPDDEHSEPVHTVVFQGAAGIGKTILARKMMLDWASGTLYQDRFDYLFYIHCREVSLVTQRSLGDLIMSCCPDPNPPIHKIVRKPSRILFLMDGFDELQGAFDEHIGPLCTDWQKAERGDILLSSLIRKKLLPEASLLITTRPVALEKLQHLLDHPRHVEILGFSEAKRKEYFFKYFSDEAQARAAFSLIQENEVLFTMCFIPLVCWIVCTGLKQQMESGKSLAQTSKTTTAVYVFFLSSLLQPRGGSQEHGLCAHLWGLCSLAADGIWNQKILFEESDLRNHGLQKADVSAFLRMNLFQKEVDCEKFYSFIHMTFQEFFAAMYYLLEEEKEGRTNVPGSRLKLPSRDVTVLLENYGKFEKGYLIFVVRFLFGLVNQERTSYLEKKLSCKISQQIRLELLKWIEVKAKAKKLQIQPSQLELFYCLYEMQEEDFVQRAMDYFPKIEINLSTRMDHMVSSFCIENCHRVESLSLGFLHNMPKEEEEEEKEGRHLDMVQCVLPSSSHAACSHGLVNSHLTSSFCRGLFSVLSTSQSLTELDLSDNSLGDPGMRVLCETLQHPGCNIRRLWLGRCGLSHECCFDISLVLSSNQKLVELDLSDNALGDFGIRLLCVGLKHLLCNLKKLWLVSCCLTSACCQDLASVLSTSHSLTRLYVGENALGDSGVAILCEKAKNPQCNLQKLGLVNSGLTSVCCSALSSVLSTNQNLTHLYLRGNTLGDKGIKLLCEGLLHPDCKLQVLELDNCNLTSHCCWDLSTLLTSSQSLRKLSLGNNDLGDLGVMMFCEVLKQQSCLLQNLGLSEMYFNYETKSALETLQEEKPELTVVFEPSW

[21] = biological target: T4, Short transient receptor potential channel 4 (Mus musculus, UniProt Q9QUQ5); assay: TRPC4 positive allosteric modulators, dose response, cell-based, HEK293 TRPC4/mu-opioid, Fluo-4 calcium, EC20 DAMGO (AID 434941); format: functional
T4 sequence (Q9QUQ5 whole entry): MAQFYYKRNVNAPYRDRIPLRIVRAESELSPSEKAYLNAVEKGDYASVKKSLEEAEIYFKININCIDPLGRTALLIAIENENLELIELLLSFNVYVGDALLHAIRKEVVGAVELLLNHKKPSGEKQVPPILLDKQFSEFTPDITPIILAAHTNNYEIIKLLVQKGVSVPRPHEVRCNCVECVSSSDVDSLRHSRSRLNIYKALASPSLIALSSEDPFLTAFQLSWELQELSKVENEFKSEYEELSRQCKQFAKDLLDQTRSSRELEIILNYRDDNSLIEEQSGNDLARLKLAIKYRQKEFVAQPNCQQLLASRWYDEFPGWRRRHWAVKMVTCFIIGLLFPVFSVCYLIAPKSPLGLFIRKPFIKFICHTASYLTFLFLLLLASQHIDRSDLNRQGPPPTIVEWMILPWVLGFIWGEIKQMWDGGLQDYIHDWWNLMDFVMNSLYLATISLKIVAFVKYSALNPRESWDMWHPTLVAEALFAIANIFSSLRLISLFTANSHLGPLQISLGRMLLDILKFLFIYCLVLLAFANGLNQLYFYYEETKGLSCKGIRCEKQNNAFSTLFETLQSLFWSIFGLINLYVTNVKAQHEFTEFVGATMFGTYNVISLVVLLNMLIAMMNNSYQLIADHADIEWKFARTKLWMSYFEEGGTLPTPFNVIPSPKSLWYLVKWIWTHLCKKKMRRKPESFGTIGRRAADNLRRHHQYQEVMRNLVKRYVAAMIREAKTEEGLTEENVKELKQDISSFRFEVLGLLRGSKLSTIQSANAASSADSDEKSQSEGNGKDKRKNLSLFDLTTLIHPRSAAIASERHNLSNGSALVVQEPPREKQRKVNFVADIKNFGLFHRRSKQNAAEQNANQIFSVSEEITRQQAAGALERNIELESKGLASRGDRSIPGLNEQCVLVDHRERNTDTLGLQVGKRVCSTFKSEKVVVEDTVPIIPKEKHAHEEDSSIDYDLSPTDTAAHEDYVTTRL

CAAX prenyl protease 2 = CAAX prenyl protease 2 (Saccharomyces cerevisiae S288c, UniProt Q03530); format: biochemical
Sequence of CAAX prenyl protease 2 (Q03530 whole entry): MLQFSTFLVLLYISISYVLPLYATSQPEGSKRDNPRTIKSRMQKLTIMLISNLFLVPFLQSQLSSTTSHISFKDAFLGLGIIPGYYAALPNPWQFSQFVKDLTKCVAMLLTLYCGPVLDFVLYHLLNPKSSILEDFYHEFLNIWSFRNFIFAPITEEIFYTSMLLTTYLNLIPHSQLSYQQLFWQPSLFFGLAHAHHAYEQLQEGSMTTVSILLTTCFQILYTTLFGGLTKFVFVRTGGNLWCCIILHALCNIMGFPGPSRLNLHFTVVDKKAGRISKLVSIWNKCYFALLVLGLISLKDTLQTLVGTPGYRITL

[22] = biological target: T5, DNA repair and recombination protein RAD54-like (Homo sapiens, UniProt Q92698); assay: inhibitors of human RAD54 branch migration, confirmation, biochemical, fluorescence, cherry-picked samples, dose series (AID 651657); format: functional
T5 sequence (Q92698 whole entry): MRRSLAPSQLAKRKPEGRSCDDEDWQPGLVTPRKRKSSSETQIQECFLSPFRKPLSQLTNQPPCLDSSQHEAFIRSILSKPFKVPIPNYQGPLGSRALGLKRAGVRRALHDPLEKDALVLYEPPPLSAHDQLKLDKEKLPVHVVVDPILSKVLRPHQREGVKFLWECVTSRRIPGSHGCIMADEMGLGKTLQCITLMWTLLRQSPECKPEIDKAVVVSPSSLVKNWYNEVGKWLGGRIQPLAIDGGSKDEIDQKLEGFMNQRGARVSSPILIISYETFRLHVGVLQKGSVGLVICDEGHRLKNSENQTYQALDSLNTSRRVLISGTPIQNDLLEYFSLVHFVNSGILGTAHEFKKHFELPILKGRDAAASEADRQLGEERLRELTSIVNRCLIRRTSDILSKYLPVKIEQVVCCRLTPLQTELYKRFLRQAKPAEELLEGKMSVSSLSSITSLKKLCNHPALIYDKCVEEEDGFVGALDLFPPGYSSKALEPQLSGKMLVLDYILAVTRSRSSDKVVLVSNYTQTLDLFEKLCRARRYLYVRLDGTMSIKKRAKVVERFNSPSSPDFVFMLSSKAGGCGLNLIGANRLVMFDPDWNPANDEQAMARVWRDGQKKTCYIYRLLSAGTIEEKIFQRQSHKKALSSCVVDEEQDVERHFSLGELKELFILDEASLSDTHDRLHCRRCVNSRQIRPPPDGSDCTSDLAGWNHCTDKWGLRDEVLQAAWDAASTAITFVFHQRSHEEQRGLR

[23] = biological target: Envelope glycoprotein gp160 (Human immunodeficiency virus 1, UniProt Q6QLK5); assay: inhibitors of HIV fusion peptide binding, primary screen, biochemical, uHTS, fluorescence dequenching (AID 1986)
Sequence of Envelope glycoprotein gp160 (Q6QLK5 whole entry, the tested form may be a part): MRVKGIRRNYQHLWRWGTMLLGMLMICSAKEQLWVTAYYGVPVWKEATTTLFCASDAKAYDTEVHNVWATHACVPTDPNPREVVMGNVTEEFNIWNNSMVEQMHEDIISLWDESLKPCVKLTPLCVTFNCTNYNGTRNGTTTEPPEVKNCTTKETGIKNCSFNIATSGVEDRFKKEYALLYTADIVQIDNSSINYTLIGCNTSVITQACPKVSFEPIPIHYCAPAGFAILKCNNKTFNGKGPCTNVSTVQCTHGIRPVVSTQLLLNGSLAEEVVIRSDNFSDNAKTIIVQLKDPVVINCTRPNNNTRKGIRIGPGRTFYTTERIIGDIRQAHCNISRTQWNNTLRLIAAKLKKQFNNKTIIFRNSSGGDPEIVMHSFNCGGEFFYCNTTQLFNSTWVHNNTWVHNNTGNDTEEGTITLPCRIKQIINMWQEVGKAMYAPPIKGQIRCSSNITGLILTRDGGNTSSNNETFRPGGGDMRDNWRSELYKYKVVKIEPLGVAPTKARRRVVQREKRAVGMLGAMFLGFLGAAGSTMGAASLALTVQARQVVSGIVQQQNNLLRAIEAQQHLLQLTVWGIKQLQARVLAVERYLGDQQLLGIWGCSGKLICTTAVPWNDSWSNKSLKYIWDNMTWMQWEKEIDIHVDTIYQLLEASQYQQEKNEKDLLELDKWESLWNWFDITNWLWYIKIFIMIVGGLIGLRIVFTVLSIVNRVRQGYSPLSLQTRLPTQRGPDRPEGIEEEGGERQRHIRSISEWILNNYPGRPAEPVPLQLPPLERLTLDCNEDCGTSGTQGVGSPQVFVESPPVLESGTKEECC

[24] = biological target: FAD-linked sulfhydryl oxidase ALR (Homo sapiens, UniProt P55789); assay: inhibitors of human ALR sulfhydryl oxidase, dose response, biochemical, H2O2 detection, luminescence, cherry-pick (AID 493248)
Sequence of FAD-linked sulfhydryl oxidase ALR (P55789 whole entry): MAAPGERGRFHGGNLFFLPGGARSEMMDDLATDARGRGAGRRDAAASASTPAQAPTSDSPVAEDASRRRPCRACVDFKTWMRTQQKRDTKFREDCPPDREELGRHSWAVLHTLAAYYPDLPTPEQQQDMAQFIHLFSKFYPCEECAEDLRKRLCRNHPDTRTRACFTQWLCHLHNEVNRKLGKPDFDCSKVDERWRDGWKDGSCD

SMILES: CN(C)CCCNc1cc(C(C)(C)C)nc2c(-c3ccc(Cl)cc3)cnn12
- EC50 [1]: 12.5 µM (active)
- EC50 [2]: 1.91 µM (active)
- EC50 (Streptokinase A): > 150 µM (not active)
- EC50 [3]: > 38 µM (not active)
- EC50 (Streptococcus): 8.08 µM (active)
- CC50 [4]: 11.4 µM (active)
- CC50 [5]: 13 µM (active)
- IC50 [6]: > 20 µM (inactive)
- IC50 (Beta-galactosidase): > 66.6 µM (inactive)
- CC50 [7]: 10.8 µM (active)
- IC50 (cells): 12.4 µM (active)
- IC50 (Protein skinhead-1): > 100 µM (inactive)

SMILES: CC1CCCC(C)N1CCCNC(=O)c1cc2c(s1)-c1ccccc1OC2 (stereo not given)
- CC50 (Vero [8]): 24.3 µM (active)
- CC50 [9]: 18.2 µM (active)
- CC50 (Vero [10]): 11 µM (active)
- CC50 (Vero [11]): 12.4 µM (active)
- IC50 [12]: 11.8 µM (active)
- IC50 (Vero [13]): > 40 µM (active)
- IC50 (Vero [14]): 19 µM (active)
- IC50 (Vero [15]): > 25 µM (active)
- CC50 (Vero [16]): > 25 µM (active)
- AC50 [17]: 12.5 µM (active)

SMILES: CC(=O)N1CCOc2ccc(S(=O)(=O)N3CCCC(C)C3)cc21 (stereo not given)
- IC50 [18]: > 100 µM (inactive)

SMILES: Cc1ccc(-c2nnc(NC(=O)COc3ccccc3F)o2)cc1C
- EC50 [19]: 2.3 µM (active)

SMILES: Brc1ccc(-n2cnc(-c3ccccc3)c2)cc1
- IC50 [20]: 35.4 µM (active)
- IC50 (Protein skinhead-1): > 100 µM (inactive)

SMILES: CCCCN(C)CCNC(=O)c1cc2c(-c3cccc(OC)c3)nn(C)c2s1
- IC50 [6]: > 20 µM (inactive)
- EC50 [21]: 0.07 µM (active)
- AC50 (CAAX prenyl protease 2): 16 µM (active)
- AC50 [22]: 31.5 µM (active)

SMILES: O=C(O)c1cccc2c(-c3ccccc3)c(-c3ccccc3)[nH]c12
- IC50 [23]: 16.8 µM (active)
- EC50 [2]: 6.24 µM (active)
- EC50 (Streptokinase A): 15.6 µM (active)
- EC50 (Streptococcus): > 150 µM (not active)
- AC50 [24]: 4.56 µM (active)
